How the values were obtained:
Assay in all cases: biochemical
Set-up in all cases: DiscoverX KinomeScan competition binding assay across human kinases; per cent of control at 10 and 100 uM
ABL1-nonphosphorylated = target: T1, ABL1-nonphosphorylated (Homo sapiens, UniProt P00519); settings: competition binding, % of control
T1 construct: nonphosphorylated
In short: (§1)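 Binding is expressed as %control, normalised between positive and negative control signals. The compound (levosimendan) was tested at 10 μM and 100 μM in the DiscoverX KinomeScan competition binding format against human kinases.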

CSF1R = CSF1R (Homo sapiens, UniProt P07333); settings: competition binding, % of control
In short: as §1

STK35 = STK35 (Homo sapiens, UniProt Q8TDR2); settings: competition binding, % of control; read-out: Percent Control (100 uM Levosimendan)
In short: as §1

p38-delta = target: T2, p38-delta (Homo sapiens, UniProt O15264); settings: competition binding, % of control; read-out: Percent Control (100 uM Levosimendan)
T2 construct: gene MAPK13
In short: as §1

ERBB2 = ERBB2 (Homo sapiens, UniProt P04626); settings: competition binding, % of control; read-out: Percent Control (100 uM Levosimendan)
In short: as §1

MST1 = target: T3, MST1 (Homo sapiens, UniProt Q13043); settings: competition binding, % of control; read-out: Percent Control (100 uM Levosimendan)
T3 construct: gene STK4
In short: as §1

RIPK1 = RIPK1 (Homo sapiens, UniProt Q13546); settings: competition binding, % of control; read-out: Percent Control (100 uM Levosimendan)
In short: as §1

CDC2L5 = target: T4, CDC2L5 (Homo sapiens, UniProt Q14004); settings: competition binding, % of control; read-out: Percent Control (100 uM Levosimendan)
T4 construct: gene CDK13
In short: as §1

TRKB = target: T5, TRKB (Homo sapiens, UniProt Q16620); settings: competition binding, % of control; read-out: Percent Control (100 uM Levosimendan)
T5 construct: gene NTRK2
In short: as §1

CDK2 = CDK2 (Homo sapiens, UniProt P24941); settings: competition binding, % of control; read-out: Percent Control (100 uM Levosimendan)
In short: as §1

PIK3CB = PIK3CB (Homo sapiens, UniProt P42338); settings: competition binding, % of control; read-out: Percent Control (100 uM Levosimendan)
In short: as §1

MAP3K2 = MAP3K2 (Homo sapiens, UniProt Q9Y2U5); settings: competition binding, % of control; read-out: Percent Control (100 uM Levosimendan)
In short: as §1

EGFR = EGFR (Homo sapiens, UniProt P00533); settings: competition binding, % of control
In short: as §1

PLK1 = PLK1 (Homo sapiens, UniProt P53350); settings: competition binding, % of control; read-out: Percent Control (100 uM Levosimendan)
In short: as §1

PIK3CA(E545K) = PIK3CA(E545K) (Homo sapiens, UniProt P42336, E545K); settings: competition binding, % of control; read-out: Percent Control (100 uM Levosimendan)
In short: as §1

CDK8 = CDK8 (Homo sapiens, UniProt P49336); settings: competition binding, % of control; read-out: Percent Control (100 uM Levosimendan)
In short: as §1

SIK2 = SIK2 (Homo sapiens, UniProt Q9H0K1); settings: competition binding, % of control; read-out: Percent Control (100 uM Levosimendan)
In short: as §1

CAMKK2 = CAMKK2 (Homo sapiens, UniProt Q96RR4); settings: competition binding, % of control; read-out: Percent Control (100 uM Levosimendan)
In short: as §1

KIT = KIT (Homo sapiens, UniProt P10721); settings: competition binding, % of control
In short: as §1

[1] = read-out: Percent Control (10 uM Levosimendan)
[2] = read-out: Percent Control (100 uM Levosimendan)

T1 sequence (P00519 whole entry): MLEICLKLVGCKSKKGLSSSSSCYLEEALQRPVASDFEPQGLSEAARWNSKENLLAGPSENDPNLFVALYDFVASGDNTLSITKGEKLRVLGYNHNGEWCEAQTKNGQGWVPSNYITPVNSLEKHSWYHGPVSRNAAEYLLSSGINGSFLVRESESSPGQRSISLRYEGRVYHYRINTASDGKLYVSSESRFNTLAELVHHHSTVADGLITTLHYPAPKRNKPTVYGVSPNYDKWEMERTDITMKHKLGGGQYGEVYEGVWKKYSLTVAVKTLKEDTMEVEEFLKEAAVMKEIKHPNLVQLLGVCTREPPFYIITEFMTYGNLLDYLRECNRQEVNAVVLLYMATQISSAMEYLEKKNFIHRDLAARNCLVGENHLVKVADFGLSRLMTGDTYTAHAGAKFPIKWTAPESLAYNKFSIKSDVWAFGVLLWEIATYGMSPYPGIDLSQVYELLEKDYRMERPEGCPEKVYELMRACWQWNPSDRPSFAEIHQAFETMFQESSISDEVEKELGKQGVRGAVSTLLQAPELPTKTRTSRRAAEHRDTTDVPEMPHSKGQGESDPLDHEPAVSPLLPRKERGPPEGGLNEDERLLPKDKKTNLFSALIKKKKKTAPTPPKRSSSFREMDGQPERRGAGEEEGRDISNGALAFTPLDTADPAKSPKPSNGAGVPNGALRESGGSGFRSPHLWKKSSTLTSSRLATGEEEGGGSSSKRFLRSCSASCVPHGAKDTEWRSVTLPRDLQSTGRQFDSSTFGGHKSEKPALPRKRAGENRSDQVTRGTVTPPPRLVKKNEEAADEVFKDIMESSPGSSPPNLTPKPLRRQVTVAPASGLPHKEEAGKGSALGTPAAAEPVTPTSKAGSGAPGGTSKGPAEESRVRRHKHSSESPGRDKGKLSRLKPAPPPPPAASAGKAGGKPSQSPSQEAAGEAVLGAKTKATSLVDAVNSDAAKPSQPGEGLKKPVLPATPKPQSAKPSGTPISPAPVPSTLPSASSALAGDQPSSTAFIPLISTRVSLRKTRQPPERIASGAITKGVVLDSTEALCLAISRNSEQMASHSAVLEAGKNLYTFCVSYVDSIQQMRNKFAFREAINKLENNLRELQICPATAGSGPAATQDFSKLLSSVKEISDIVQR
CSF1R, sequence (P07333 whole entry): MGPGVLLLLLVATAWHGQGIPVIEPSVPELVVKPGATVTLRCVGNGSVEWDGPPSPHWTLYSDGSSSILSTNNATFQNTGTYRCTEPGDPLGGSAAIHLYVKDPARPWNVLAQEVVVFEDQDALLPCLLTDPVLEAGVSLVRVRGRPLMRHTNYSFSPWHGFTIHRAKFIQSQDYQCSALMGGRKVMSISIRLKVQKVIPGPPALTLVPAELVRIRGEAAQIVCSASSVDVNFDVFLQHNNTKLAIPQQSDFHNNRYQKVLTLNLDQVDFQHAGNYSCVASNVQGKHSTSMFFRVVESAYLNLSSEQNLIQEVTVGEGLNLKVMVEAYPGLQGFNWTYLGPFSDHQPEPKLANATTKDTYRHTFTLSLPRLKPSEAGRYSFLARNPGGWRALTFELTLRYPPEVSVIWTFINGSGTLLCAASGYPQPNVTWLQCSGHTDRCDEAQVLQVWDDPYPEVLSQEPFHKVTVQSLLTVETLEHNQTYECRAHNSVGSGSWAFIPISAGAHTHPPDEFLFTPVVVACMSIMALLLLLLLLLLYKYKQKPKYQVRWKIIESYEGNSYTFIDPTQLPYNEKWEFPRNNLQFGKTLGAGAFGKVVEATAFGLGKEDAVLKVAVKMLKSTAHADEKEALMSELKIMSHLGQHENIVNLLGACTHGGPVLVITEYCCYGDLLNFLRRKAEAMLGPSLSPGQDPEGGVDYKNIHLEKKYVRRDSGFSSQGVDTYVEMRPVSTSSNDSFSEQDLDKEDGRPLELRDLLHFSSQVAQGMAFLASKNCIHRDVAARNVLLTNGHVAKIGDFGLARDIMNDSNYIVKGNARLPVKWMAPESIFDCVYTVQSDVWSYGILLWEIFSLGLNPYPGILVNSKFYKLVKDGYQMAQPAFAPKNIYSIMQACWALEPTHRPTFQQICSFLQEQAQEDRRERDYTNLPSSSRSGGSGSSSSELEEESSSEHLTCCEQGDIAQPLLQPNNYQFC
EGFR, sequence (P00533 whole entry): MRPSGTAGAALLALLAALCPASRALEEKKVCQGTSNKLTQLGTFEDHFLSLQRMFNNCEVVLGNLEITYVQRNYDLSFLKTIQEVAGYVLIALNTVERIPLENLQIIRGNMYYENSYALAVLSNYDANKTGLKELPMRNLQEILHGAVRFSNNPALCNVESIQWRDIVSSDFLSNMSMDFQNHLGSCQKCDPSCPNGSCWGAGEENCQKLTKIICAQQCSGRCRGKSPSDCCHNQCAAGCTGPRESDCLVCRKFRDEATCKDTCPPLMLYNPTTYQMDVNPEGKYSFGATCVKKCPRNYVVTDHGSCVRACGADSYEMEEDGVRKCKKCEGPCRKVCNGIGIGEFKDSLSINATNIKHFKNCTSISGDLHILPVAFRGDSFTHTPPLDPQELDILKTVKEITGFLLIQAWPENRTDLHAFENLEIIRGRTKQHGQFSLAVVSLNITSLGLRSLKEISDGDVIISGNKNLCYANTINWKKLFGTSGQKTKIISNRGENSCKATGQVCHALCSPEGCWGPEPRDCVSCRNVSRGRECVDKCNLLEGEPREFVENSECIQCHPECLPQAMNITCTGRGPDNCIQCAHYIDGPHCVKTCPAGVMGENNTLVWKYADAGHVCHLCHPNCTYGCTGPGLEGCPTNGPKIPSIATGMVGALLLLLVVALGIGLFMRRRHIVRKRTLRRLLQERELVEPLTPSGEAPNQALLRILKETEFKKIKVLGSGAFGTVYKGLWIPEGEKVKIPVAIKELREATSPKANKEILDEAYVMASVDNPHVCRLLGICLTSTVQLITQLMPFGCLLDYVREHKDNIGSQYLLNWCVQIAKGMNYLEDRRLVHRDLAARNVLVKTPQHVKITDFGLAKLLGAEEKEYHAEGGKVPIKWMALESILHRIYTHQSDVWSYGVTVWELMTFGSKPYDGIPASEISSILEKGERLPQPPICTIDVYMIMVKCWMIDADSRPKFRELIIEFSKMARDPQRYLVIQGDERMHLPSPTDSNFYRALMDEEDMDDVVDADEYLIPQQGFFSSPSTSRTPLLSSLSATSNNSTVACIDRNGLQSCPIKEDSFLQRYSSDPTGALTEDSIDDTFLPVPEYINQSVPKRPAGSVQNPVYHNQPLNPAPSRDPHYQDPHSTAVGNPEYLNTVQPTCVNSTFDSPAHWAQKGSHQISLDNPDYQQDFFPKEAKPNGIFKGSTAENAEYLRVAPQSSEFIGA
KIT, sequence (P10721 whole entry): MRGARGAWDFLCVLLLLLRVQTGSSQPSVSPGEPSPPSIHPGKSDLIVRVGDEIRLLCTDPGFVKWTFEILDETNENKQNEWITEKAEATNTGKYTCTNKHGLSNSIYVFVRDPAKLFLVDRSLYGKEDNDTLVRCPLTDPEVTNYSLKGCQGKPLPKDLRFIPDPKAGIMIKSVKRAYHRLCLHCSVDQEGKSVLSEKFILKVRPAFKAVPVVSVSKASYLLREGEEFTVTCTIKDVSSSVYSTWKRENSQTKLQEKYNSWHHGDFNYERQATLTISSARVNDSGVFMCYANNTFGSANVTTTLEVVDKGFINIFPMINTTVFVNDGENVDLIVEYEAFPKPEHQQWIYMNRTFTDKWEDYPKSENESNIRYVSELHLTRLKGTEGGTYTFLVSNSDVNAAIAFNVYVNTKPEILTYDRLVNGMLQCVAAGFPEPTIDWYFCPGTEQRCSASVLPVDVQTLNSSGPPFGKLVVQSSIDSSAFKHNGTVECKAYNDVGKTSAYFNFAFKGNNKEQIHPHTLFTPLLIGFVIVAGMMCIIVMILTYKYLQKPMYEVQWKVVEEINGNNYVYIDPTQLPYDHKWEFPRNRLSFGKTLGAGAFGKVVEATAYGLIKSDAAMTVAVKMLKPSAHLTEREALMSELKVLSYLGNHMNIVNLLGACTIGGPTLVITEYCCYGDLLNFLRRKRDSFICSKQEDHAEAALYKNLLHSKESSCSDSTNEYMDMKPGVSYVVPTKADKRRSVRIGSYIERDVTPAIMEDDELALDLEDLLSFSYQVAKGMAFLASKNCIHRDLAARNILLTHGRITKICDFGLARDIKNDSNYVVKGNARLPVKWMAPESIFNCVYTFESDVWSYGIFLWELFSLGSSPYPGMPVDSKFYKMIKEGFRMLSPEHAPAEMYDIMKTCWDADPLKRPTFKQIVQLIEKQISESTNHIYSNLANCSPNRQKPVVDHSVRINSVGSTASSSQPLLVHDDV
CDK8, sequence (P49336 whole entry): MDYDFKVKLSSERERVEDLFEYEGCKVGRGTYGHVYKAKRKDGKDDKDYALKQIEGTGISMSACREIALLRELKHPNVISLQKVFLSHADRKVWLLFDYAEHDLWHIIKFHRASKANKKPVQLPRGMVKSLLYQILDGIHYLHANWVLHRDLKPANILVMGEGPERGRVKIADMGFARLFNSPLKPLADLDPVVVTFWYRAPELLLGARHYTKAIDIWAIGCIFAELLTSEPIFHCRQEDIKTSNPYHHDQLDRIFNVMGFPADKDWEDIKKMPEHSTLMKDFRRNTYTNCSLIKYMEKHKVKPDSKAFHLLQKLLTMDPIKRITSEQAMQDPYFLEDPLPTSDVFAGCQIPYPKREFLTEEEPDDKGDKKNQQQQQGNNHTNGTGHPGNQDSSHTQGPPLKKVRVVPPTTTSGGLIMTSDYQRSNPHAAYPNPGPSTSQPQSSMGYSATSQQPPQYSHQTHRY

Structure (SMILES): C[C@@H]1CC(=O)NN=C1c1ccc(NN=C(C#N)C#N)cc1 [levosimendan]
- remaining binding at 10 µM (ABL1-nonphosphorylated; [1]): 94%
- remaining binding at 100 µM (ABL1-nonphosphorylated; [2]): 49%
- remaining binding at 10 µM (CSF1R; [1]): 78%
- remaining binding at 100 µM (CSF1R; [2]): 40%
- remaining binding at 100 µM (STK35): 81%
- remaining binding at 100 µM (p38-delta): 100%
- remaining binding at 100 µM (ERBB2): 100%
- remaining binding at 100 µM (MST1): 75%
- remaining binding at 100 µM (RIPK1): 73%
- remaining binding at 100 µM (CDC2L5): 100%
- remaining binding at 100 µM (TRKB): 81%
- remaining binding at 100 µM (CDK2): 97%
- remaining binding at 100 µM (PIK3CB): 100%
- remaining binding at 100 µM (MAP3K2): 86%
- remaining binding at 10 µM (EGFR; [1]): 78%
- remaining binding at 100 µM (EGFR; [2]): 28%
- remaining binding at 100 µM (PLK1): 100%
- remaining binding at 100 µM (PIK3CA(E545K)): 58%
- remaining binding at 100 µM (CDK8): 100%
- remaining binding at 100 µM (SIK2): 65%
- remaining binding at 100 µM (CAMKK2): 54%
- remaining binding at 10 µM (KIT; [1]): 26%
- remaining binding at 100 µM (KIT; [2]): 3.5%

— PMC6576746, “Rational discovery of dual-indication multi-target PDE/Kinase inhibitor for precision anti-cancer therapy using structural systems pharmacology” (PLoS Computational Biology, 2019)
